SMILES strings stand for the structures.

Data on two compounds can be found in US20260283950A1, “TRI-AZOLE ANTIFUNGAL COMPOSITIONS” (priority 2023, published 2026).

Data set [1] in a line: Preparation of solutions in semifluorinated alkanes, appearance of the composition. It is filed as physicochemical. As to the method:
14 mg efinaconazole (purity >99%) is weighed in a 5-ml glass vial; 2 ml F6H8 (Novaliq, purity >99%) is added into the vial by using a pipette, closed with aluminium crimp cap and shaken for 4 hours at 280 mpm, at RT.
20 mg efinaconazole (purity >99%) is weighed in a 5-ml glass vial; the needed volume of the cosolvent is added into the vial by using a pipette; the vial is shaken by hand gentle; the needed volume of F6H8 (Novaliq, purity >99%) is added by using a pipette, closed with aluminium crimp cap and shaken for 4 hours at 280 mpm, at RT.
Following the procedure described in the Examples 1 and 2, the following compositions were prepared (Table 1):
20 mg terbinafine (free base; purity >98%) is weighed in a 5-ml glass vial; 2 ml F6H8 (Novaliq, purity >99%) is added into the vial by using a pipette, closed with aluminium crimp cap and shaken overnight at 280 mpm, at RT.
Following the aforementioned procedure the following compositions were prepared (Table 6): […]

The subject of a further data set is T. interdigitale. As to the kind of experiment: In vitro nail penetration/inhibition model (Bovine Hoof Sheets soaked in product, zone of inhibition). In kind it is cell-based. The settings on record: BHS soaked 24 hours in product, incubation at 28° C. 5 days. The procedure: Three test products containing 0.1% to 10% efinaconazole were tested in vitro for their capabilities to inhibit growth of a representative dermatophyte (T. interdigitale) that is known to cause onychomycosis and tinea pedis in humans: • (a) 0.1% efinaconazole, dissolved in a mixture of F6H8 and 2-propanol (10:1 v/v %), non-aqueous (8-9), • (b) 1.0% efinaconazole, dissolved in a mixture of F6H8 and 2-propanol (9:1 v/v %), non-aqueous (4-7), • (c) 10% efinaconazole, aqueous commercial product (“Jublia”; Bausch Health, Bridgewater, USA) (10-11). As reference products, DMSO was utilized as negative control (1), terbinafine (100 μg/ml in DMSO) as positive control (2) and F6H8 as vehicle control (3). […] Bovine Hoof Sheets (BHS; 400 μm thickness, 16 mm diameter), an established in vitro surrogate for human nails in transungual permeation studies, were soaked in excess in the three test products and the three reference products for 24 hours. Afterwards the BHS were taken from the soaking baths and remaining residues of the test and reference products were thoroughly removed. Then, BHS were transferred and placed onto freshly plated T. interdigitale culture plates. […] Experimental details and results are depicted in Table 2 below: […]

Consider `C=C1CCN([C@H](C)[C@](O)(Cn2cncn2)c2ccc(F)cc2F)CC1` [Efinaconazole, efinaconazole], for which the Appearance entry is recorded as “clear solution” in data set [1] (7 mg/mL efinaconazole in F6H8, no cosolvent); “clear solution” in data set [1] (10 mg/mL efinaconazole, F6H8 (90 vol %), 2-propanol (10 vol %)); “clear solution” in data set [1] (15 mg/mL efinaconazole, F4H5 (90 vol %), 2-propanol (10 vol %)); “clear solution” in data set [1] (15 mg/mL efinaconazole, F4H10 (90 vol %), 2-propanol (10 vol %)); “clear solution” in data set [1] (15 mg/mL efinaconazole, F6H8 (85 vol %), 2-propanol (10 vol %), 1-Methyl-2-pyrrolidon (5 vol %)); “clear solution” in data set [1] (15 mg/mL efinaconazole, F6H8 (85 vol %), 2-propanol (10 vol %), Ethyl acetate (5 vol %)). Also, the Appearance entry in data set [1] (15 mg/mL efinaconazole, F6H8 (85 vol %), 2-propanol (10 vol %), N,N-Dimethyl acetamide (5 vol %)) is reported as “clear solution”; in data set [1] (15 mg/mL efinaconazole, F6H8 (85 vol %), 2-propanol (10 vol %), N,N-Dimethyl formamide (5 vol %)), “clear solution”; in data set [1] (25 mg/mL efinaconazole, F6H8 (75 vol %), 2-propanol (25 vol %)), “clear solution”.
Turning to `CN(C/C=C/C#CC(C)(C)C)Cc1cccc2ccccc12` [terbinafine], the “Results (inhibition zone, in words)” value in the data set on T. interdigitale was “nearly complete inhibition”. In addition, the zone of inhibition at 100 µg/mL in the data set on T. interdigitale (Trichophyton interdigitale, 120 h, read-out: zones of inhibition) lay in the range of 56 to 58 mm. Further, the Appearance entry in data set [1] (1 mg/mL terbinafine in F4H5, no cosolvent) is recorded as “clear solution”; in data set [1] (1 mg/mL terbinafine in F6H8, no cosolvent), “clear solution”; in data set [1] (5 mg/mL terbinafine in F4H5, no cosolvent) it was “clear solution”; in data set [1] (5 mg/mL terbinafine in F6H8, no cosolvent), “clear solution”; in data set [1] (10 mg/mL terbinafine in F6H8, no cosolvent), “clear solution”; in data set [1] (10 mg/mL terbinafine, F4H5, ethanol (10 vol %)), “clear solution”. The Appearance result in data set [1] (10 mg/ml terbinafine, F6H8 (90 vol %), 2-propanol (10 vol %)) is reported as “clear solution”; in data set [1] (15 mg/mL terbinafine in F6H8, no cosolvent), “clear solution”; in data set [1] (20 mg/mL terbinafine, F6H8 (90 vol %), ethanol (10 vol %)), “clear solution”; in data set [1] (20 mg/ml terbinafine, F6H8 (90 vol %), 2-propanol (10 vol %)) it was “clear solution”.
